US10155802B2, “Locally-active anticoagulants and anti-inflammatory agents” (priority 2011, dated 2018)
Several values for one entry are separate records, joined by “and”; a condition that tells them apart may be missing. Equal entries are not always repeated. Entries after “also recorded” stand apart in the source; their conditions may differ.

Key:
Human α-thrombin = target: T1, Human α-thrombin (Homo sapiens, UniProt P00734); experiment: Inhibition of thrombin-catalyzed hydrolysis of chromogenic substrate S-2366 (inhibition constant Ki); format: biochemical; conditions: for Ki: T = 37° C., enzyme kinetics, chromogenic substrate
T1 construct: Human α-thrombin was purchased from Haemotologic Technologies, Inc., VT, USA; purchased Haemotologic Technologies, Inc., VT, USA

[1] = test system: fresh blood withdrawn from rats with venous thrombosis; experiment: Clotting time (aPTT) of fresh blood withdrawn from treated rats; format: in vivo; conditions: rat, 0.2 mg/kg bolus + 0.00433 mg/kg/min infusion; 20 minutes after administration versus before
Procedure: FIG. 23 illustrates the clotting times (aPTT) determined for fresh blood withdrawn from rats with venous thrombosis at three time points, the first before drug administration and vessel injury, the second at 20 minutes after FeCl3 application and the third 60 minutes following injection of the respective thrombin inhibitors. Clotting times (aPTT) are shown for different rats administered with each thrombin inhibitor, ZIP4 for MH2-wZIP4, ZIP5 for MH2-wZIP5 and T218 for BRI-T218. Dosage levels for every compound were 0.2 mg/kg for the single-bolus injection and 0.00433 mg/kg/min for the maintenance infusion,
Terminal blood samples were analyzed for aPTT within 15 to 30 minutes of collection using a Coag DX Analyzer with aPTT citrate cartridges (IDEXX Laboratories, Westbrook, Me., USA).

[2] = test system: FeCl3-induced arterial thrombosis (carotid artery); experiment: FeCl3-induced arterial model of thrombosis in rats (time to occlusion); format: in vivo; conditions: rat, single bolus 0.2 mg/kg plus maintenance infusion 0.00433 mg/kg/min
Procedure: Male Sprague-Dawley rats (250-310 g; Charles River Laboratories, St-Constant, QC, Canada) were acclimated for at least 3 days prior to the start of the study. Animals were housed in microisolator cages and were kept on a 12-hr light/dark cycle with constant temperature and humidity. Food and water were provided ad libitum. Various anti-thrombotic agents and peptides of this invention were dissolved in saline (0.9% sodium chloride) prior to use.
The FeCl3-induced arterial model of thrombosis in rats was also generated as described by Wang and Xu (Wang 2005) with some modifications (Couture 2011). Briefly, rats were anesthetized with a 2.5% isoflurane/oxygen mixture and placed on a heat source (35-37° C.). An incision was made over the right carotid artery, and a segment of the artery was exposed via blunt dissection. A Doppler flow probe (Model MA1PRB, Transonic System Inc., Ithaca, N.Y., USA) connected to a perivascular flow module (TS420, Transonic System Inc., Ithaca, N.Y., USA) was then attached to the carotid artery to monitor blood flow. Data were collected and analyzed using the MP100 Biopac™ Systems (Biopac Systems, Santa Barbara, Calif., USA), and the AcgKnowledge™ software (Biopac Systems, Santa Barbara, Calif., USA), respectively. Baseline blood flow was recorded for a minimum of 15 minutes until readings stabilized. Aquasonic 100 gel (Parker Laboratories, Inc., Fairfield, N.J., USA) was added to help conductivity and any fluid accumulating at the site of surgery was removed during data sampling without touching the probe. […] One minute after drug administration, a piece of filter paper (Gel Blot Paper, GB003, Whatman, Piscataway, N.J., USA; 7 mm diameter) saturated with 20% FeCl3 (EMD Chemicals Inc., Gibbstown, N.J., USA) was placed on the exposed surface of the carotid artery and incubated for 3.5 minutes. During the application of FeCl3, the neck region was covered with aluminum foil. At the end of the incubation period, the filter paper was removed and the exposed carotid was covered with a saline-soaked gauze. Time to occlusion was defined as the time from the application of FeCl3 until blood flow decreased to zero. […] Preparing and processing each animal took approximately 1 hr and 7 animals were treated each day. Control animals were always included when the other treatments were being administered. For this reason, the number of animals in the control group is higher than that of the treated-groups.
Statistical analysis was conducted using GraphPad™ Prism (GraphPad Software Inc., San Diego Calif., USA). Data were analyzed using one-way ANOVA with post-hoc Bonferroni correction for multiple comparisons. The relationship between thrombus weight and thrombus volume was determined by linear regression. […]

thrombin = thrombin (Homo sapiens, UniProt P00734); experiment: Cleavage of thrombin-sensitive peptides catalyzed by thrombin, followed by HPLC; format: biochemical; parameters: rapidly converts prothrombin into the ultimate protease thrombin; conditions: 75 μM peptide, 23 nM thrombin, pH 7.6, 37° C.

Structure (SMILES) | Ki (Human α-thrombin) | clotting time (aPTT), systemic anticoagulant effect [1] | anti-thrombotic efficacy in arterial model [2] | cleavage by thrombin (thrombin) | reduction of Ki as compared to BRI-T207 (Human α-thrombin) | reduction of Ki as compared to MH2-wZIP4 (Human α-thrombin)
CC[C@H](C)[C@H](NC(=O)[C@H](CCCNC(=N)N)NC(=O)[C@@H]1CCCN1C(=O)[C@H](N)Cc1ccccc1)C(=O)N[C@@H](CCCNC(=N)N)C(=O)N[C@@H](Cc1ccccc1)C(=O)N[C@H](C(=O)N[C@@H](CC(=O)O)C(=O)NCC(=O)N[C@@H](CCC(=O)O)C(=O)N[C@@H](Cc1c[nH]c2ccccc12)C(=O)N[C@H](C(=O)N[C@@H](Cc1c[nH]c2ccccc12)C(=O)N[C@@H](CC(=O)O)C(=O)N[C@@H](CC(=O)O)C(=O)N[C@@H](C)C(=O)N[C@H](C(=O)N[C@@H](CCCCN)C(=O)N[C@H](C(=O)N[C@@H](Cc1c[nH]c2ccccc12)C(=O)N[C@H](C(=O)N[C@@H](Cc1c[nH]c2ccccc12)C(=O)N[C@H](C(=O)N[C@@H](CCC(=O)O)C(=O)NCC(=O)N[C@@H](CC(=O)O)C(=O)N[C@@H](Cc1ccccc1)C(=O)N[C@@H](CCC(=O)O)C(=O)N[C@@H](CCC(=O)O)C(=O)N[C@H](C(=O)N1CCC[C@H]1C(=O)N[C@@H](CCC(=O)O)C(=O)N[C@@H](CCC(=O)O)C(=O)N[C@@H](Cc1ccc(O)cc1)C(=O)N[C@@H](CC(C)C)C(=O)O)[C@@H](C)CC)[C@@H](C)O)[C@@H](C)O)[C@@H](C)O)[C@@H](C)O)[C@@H](C)O)[C@@H](C)O [BRI-T218] | ~14 nM and 14 nM | only a slight prolongation of the clotting time (aPTT) | appears to restore the anti-thrombotic activity; also recorded: increases the efficacy | completely converted to the cleavage products within two hours; also recorded: almost completion of the cleavage reaction after 2 hours of incubation |  | 
CC[C@H](C)[C@H](NC(=O)[C@H](CCC(=O)O)NC(=O)[C@H](CCC(=O)O)NC(=O)[C@H](Cc1ccccc1)NC(=O)[C@H](CC(=O)O)NC(=O)CNC(=O)[C@H](CCC(=O)O)NC(=O)[C@@H](NC(=O)[C@H](Cc1c[nH]c2ccccc12)NC(=O)[C@@H](NC(=O)[C@H](Cc1c[nH]c2ccccc12)NC(=O)[C@@H](NC(=O)[C@H](CCCCN)NC(=O)[C@@H](NC(=O)[C@H](C)NC(=O)[C@H](CC(=O)O)NC(=O)[C@H](CC(=O)O)NC(=O)[C@H](Cc1c[nH]c2ccccc12)NC(=O)[C@@H](NC(=O)[C@H](Cc1c[nH]c2ccccc12)NC(=O)[C@H](CCC(=O)O)NC(=O)CNC(=O)[C@H](CC(=O)O)NC(=O)[C@@H](NC(=O)[C@H](Cc1ccccc1)NC(=O)[C@H](CCCNC(=N)N)NC(=O)[C@@H]1CCCN1C(=O)[C@H](CCCNC(=N)N)NC(=O)[C@@H]1CCCN1C(=O)[C@H](N)Cc1ccccc1)[C@@H](C)O)[C@@H](C)O)[C@@H](C)O)[C@@H](C)O)[C@@H](C)O)[C@@H](C)O)C(=O)N1CCC[C@H]1C(=O)N[C@@H](CCC(=O)O)C(=O)N[C@@H](CCC(=O)O)C(=O)N[C@@H](Cc1ccc(O)cc1)C(=O)N[C@@H](CC(C)C)C(=O)O [BRI-T208] | ~28 nM and 28 nM |  |  | significantly more resistant to thrombin cleavage than BRI-T218 | about 13 fold | approximately 5 fold
